# Laboratory results: patent EP4563571A1, “PRMT5 INHIBITORS” (Beijing Earthwise Technology Co., Ltd., priority 2022, dated 2024)
# Tested on: HCT116 cells
# Experiment: Anti-proliferation assay on cells (Cell-Titer Glo, 10 days)
# Assay type: cell-based
# Details: ratio of GI50 values
# Experimental: Assay example 1: Method of anti-proliferation assay on cells
# HCT116^MTAP Deletion cells were from Pharmaron (China); HCT116 cells were from ATCC; McCoy's 5A medium was purchased from Invitrogen (USA); penicillin-streptomycin and fetal bovine serum were purchased from Gibco (USA); a 384-well plate was purchased from PerkinElmer (USA); and Cell-Titer Glo reagent was purchased from Promega (USA).
# Compound dissolution: All the compounds were dissolved in dimethyl sulfoxide (DMSO) and then stored. The compounds were stored at room temperature in a dry condition for 3 months for short term storage or at -20 °C for long term storage.
# Cell culture and passaging
# The cells were cultured strictly in accordance with ATCC requirements. The cell culture medium (McCoy's 5A medium + 10% fetal bovine serum + 1% penicillin + streptomycin) was transferred to a 15 mL centrifuge tube and centrifuged at 1000 rpm for 5 min. The supernatant was removed. The cells were resuspended with complete culture medium, inoculated into a culture dish at the required density, and cultured in an incubator at 37 °C, 95% humid air, and 5% carbon dioxide. The culture medium was replenished or the cells were passaged every 2-3 days depending on the cell growth condition.
# Cell proliferation activity assay
# When the confluency of cells in the culture dish reached about 90%, the cells were washed twice with PBS, and then treated with trypsin to become single cells. The cells were counted, and 40µl of the cells was inoculated into each well of a 384-well plate (50 cells/well). The plate was equilibrated at 37 °C and 5% carbon dioxide for 10 to 15 minutes. The compounds were injected into the 384-well plate using Echo550, and positive control and negative control (0.1% DMSO) were set up. Each compound was subjected to a 3-fold dilution, resulting in 10 concentration gradients, in duplicate, and the content of DMSO was 0.1%. The 384-well plate was incubated in a cell culture incubator for 10 days.
# Then, 40 µl of cell proliferation assay reagent (CTG) was added to the 384-well plate, and the plate was shaken to mix well. Then, the 384-well plate was incubated at 37 °C and 5% carbon dioxide in the dark for 30 minutes. The data were read using the Envision multifunctional microplate reader. […] According to the different drug concentrations and their corresponding inhibition rates, the GI50 curve was drawn using GraphPad 8.0 software. The data were analyzed, and the final IC50 value was obtained.
# In addition, the compounds of the present disclosure also have selectivity for mutant HCT116 cells. […] The selectivity data of representative compounds are shown in Table 2: Table 2 Selectivity data of representative compounds
row,Selectivity multiple of HCT116^MTAP WT GI50/ HCT116^MTAP Deletion GI50,Compound
1,147,CN(C(=O)C(=O)Nc1cnc(N)c2c1cnn2C)C1COCc2c1ccc(Cl)c2Cl (stereo not shown) [Example 168-P1]
2,94,"CN(C(=O)C(=O)Nc1cnc(N)c2c1cnn2C)C1COCc2cc(Cl)c(Cl)cc21 (single isomer, unassigned) [Example 163-P1]"
3,247,Cc1ncc(-c2ccc3c(c2)COCC3N(C)C(=O)C(=O)Nc2cnc(N)c3c2cnn3C)s1 (stereo not shown) [Example 181-P1]

# Tested on: HCT116^MTAP Deletion cells
# Experiment: as above
# Assay type: cell-based
# Details: 240 h, HCT116^MTAP Deletion cells, 10 days incubation, CTG readout; read-out: HCT116^MTAP Deletion GI50
# Method in brief: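 HCT116^MTAP Deletion cells seeded at 50 cells/well and exposed to 10-point 3-fold compound dilutions in duplicate (0.1% DMSO) for 10 days at 37 °C. Viability read by CellTiter-Glo luminescence; IC50 derived from GI50 curves of concentration versus inhibition.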
row,Compound,GI50
1,CC1OCc2c(NC(=O)C(=O)N(Cc3ccc(C(F)(F)F)cn3)CC3CC3)cnc(N)c21 (stereo not shown) [Example 79],0.1 to 1 µM
2,CCC(C)N(Cc1cc(C)n(C)n1)C(=O)C(=O)Nc1cnc(N)c(C)c1 (stereo not shown) [Example 75],0.1 to 1 µM
3,CCCN(C(=O)C(=O)Nc1cnc(N)c2c1cnn2C)C1COc2cc(C(F)(F)F)ccc21 (stereo not shown) [Example 117],0.01 to 0.1 µM
4,CC(c1cscn1)N(Cc1ccc(C(F)(F)F)cn1)C(=O)C(=O)Nc1cnc(N)c2c1COC2 (stereo not shown) [Example 68],0.01 to 0.1 µM
5,Cn1ncc2c(NC(=O)C(=O)NC3COCc4cc(C(F)(F)F)ccc43)cnc(N)c21 (stereo not shown) [Example 119],1 to 10 µM
6,Cc1cc(NC(=O)C(=O)N(Cc2ccc(C(F)(F)F)cn2)CC2CC(F)(F)C2)cnc1N [Example 70],0.1 to 1 µM
7,CCC(C)N(Cc1ccc(OC2CC2)cn1)C(=O)C(=O)Nc1cnc(N)c(C)c1 (stereo not shown) [Example 83],0.01 to 0.1 µM
8,CCC(C)N(Cc1ncc(C(F)(F)F)cn1)C(=O)C(=O)Nc1cnc(N)c(C)c1 (stereo not shown) [Example 82],0.1 to 1 µM
9,CCC(C)N(Cc1ccc(Cl)cn1)C(=O)C(=O)Nc1cnc(N)c(C)c1 (stereo not shown) [Example 61],0.1 to 1 µM
10,CC(C)N(C(=O)C(=O)Nc1cnc(N)c2c1cnn2C)C1COc2cc(C(F)(F)F)ccc21 (stereo not shown) [Example 116],0.01 to 0.1 µM
11,Cn1ncc2c(NC(=O)C(=O)N(CC3CC3)C3COCc4cc(C(F)(F)F)ccc43)cnc(N)c21 (stereo not shown) [Example 102],< 0.01 µM
12,CCC(C)N(Cc1ccc(C(F)(F)F)cc1)C(=O)C(=O)Nc1cnc(N)c(C)c1 (stereo not shown) [Example 59],0.01 to 0.1 µM
13,CCC(C)N(Cc1ccc(S(C)(=O)=O)cn1)C(=O)C(=O)Nc1cnc(N)c(C)c1 (stereo not shown) [Example 85],0.1 to 1 µM
14,Cc1cc(NC(=O)C(=O)N(Cc2ccc(C(F)(F)F)nn2)[C@H](C)c2ncccn2)cnc1N [Example 55],0.1 to 1 µM
15,CCCN(C(=O)C(=O)Nc1cnc(N)c2c1cnn2C)C1COCc2cc(C(F)(F)F)ccc21 (stereo not shown) [Example 97],< 0.01 µM
16,CN(C(=O)C(=O)Nc1cnc(N)c2c1cnn2C)C1COCc2cc(C(F)(F)F)cnc21 (stereo not shown) [Example 114],0.1 to 1 µM
17,CN(Cc1ccc2sc(C3CCOCC3)nc2c1)C(=O)C(=O)Nc1cnc(N)c2c1COC2 [Example 67],1 to 10 µM
18,Cn1ncc2c(NC(=O)C(=O)N(C3CC3)C3COc4cc(C(F)(F)F)ccc43)cnc(N)c21 (stereo not shown) [Example 118],< 0.01 µM
19,CC(C)CN(C(=O)C(=O)Nc1cnc(N)c2c1cnn2C)C1COCc2cc(C(F)(F)F)ccc21 (stereo not shown) [Example 103],< 0.01 µM

# Other lines, results leading:
row,GI50,Compound
1,1 to 10 µM,COc1ncc(NC(=O)C(=O)N(C)C2COc3cc(C(F)(F)F)ccc32)cc1C(N)=O (stereo not shown) [Example 142]
2,< 0.01 µM,Cn1ncc2c(NC(=O)C(=O)N(CC3CC3)C3COc4cc(C(F)(F)F)ccc43)cnc(N)c21 (stereo not shown) [Example 123]
3,0.1 to 1 µM,COc1ncc(NC(=O)C(=O)N(C)C2COCc3cc(C4=CCOCC4)ccc32)cc1C(N)=O (stereo not shown) [Example 166]
4,< 0.01 µM,CN(C(=O)C(=O)Nc1cnc(N)c2c1cnn2C)C1COCc2cc(-c3cnn4c3CCC4)ccc21 (stereo not shown) [Example 154]
5,0.1 to 1 µM,CN(C(=O)C(=O)Nc1cnc(N)c2c1cnn2C)C1COc2cc(-c3nncn3C3CC3)ccc21 (stereo not shown) [Example 228]
6,0.01 to 0.1 µM,CN(C(=O)C(=O)Nc1cnc(N)c2c1cnn2C)C1COc2cc(-c3ccccc3)ccc21 (stereo not shown) [Example 216]
7,1 to 10 µM,CN(C(=O)C(=O)Nc1cnc(N)c2c1cnn2C)C1CCCN(c2ccccc2)C1 (stereo not shown) [Example 133]
8,< 0.01 µM,CCN(C(=O)C(=O)Nc1cnc(N)c2c1cnn2C)C1COc2cc(C(F)(F)F)ccc21 (stereo not shown) [Example 121]
9,0.01 to 0.1 µM,Cc1ncc(-c2cc3c(cn2)C(N(C)C(=O)C(=O)Nc2cnc(N)c4c2cnn4C)COC3)s1 (stereo not shown) [Example 222]
10,0.01 to 0.1 µM,Cc1cn(-c2ccc3c(c2)COCC3N(C)C(=O)C(=O)Nc2cnc(N)c3c2cnn3C)cn1 (stereo not shown) [Example 145]
11,< 0.01 µM,COc1ccc(-c2ccc3c(c2)COCC3N(C)C(=O)C(=O)Nc2cnc(N)c3c2cnn3C)cn1 (stereo not shown) [Example 202]
12,< 0.01 µM,CN(C(=O)C(=O)Nc1cnc(N)c2c1cnn2C)C1COc2cc(-c3cnn(C)c3)ccc21 (stereo not shown) [Example 140-P1]
13,0.01 to 0.1 µM,CN(C(=O)C(=O)Nc1cnc(N)c2c1cnn2C)C1COc2cc(C#N)ccc21 (stereo not shown) [Example 198]
14,0.01 to 0.1 µM,CN(C(=O)C(=O)Nc1cnc(N)c2c1cnn2C)C1COCc2ncccc21 (stereo not shown) [Example 151]
15,0.1 to 1 µM,CN(C(=O)C(=O)Nc1cnc(N)c2c1cnn2C)C1CCN(c2ccccc2)C1 (stereo not shown) [Example 130]
16,< 0.01 µM,CC(C)c1ccc2c(c1)OCC2N(C)C(=O)C(=O)Nc1cnc(N)c2c1cnn2C (stereo not shown) [Example 230]

# Same assay, conditions: HCT116^MTAP Deletion cells, 10 days incubation, CTG readout; read-out: HCT116^MTAP Deletion GI50
row,Compound,GI50
1,C[C@H](c1ncccn1)N(Cc1ccc(C(F)(F)F)cn1)C(=O)C(=O)Nc1cnc(N)c2c1CCCC2 [Example 31],0.1 to 1 µM
2,Cc1cc(NC(=O)C(=O)N(Cc2ccc(C(F)(F)F)cn2)C2CC2)cnc1N [Example 12],0.1 to 1 µM
3,Cc1cc(NC(=O)C(=O)N(Cc2ccc(C(F)(F)F)cn2)c2cnn(C)c2)cnc1N [Example 18],0.1 to 1 µM
4,Cc1cc(/C=C/C(=O)N(Cc2ccc(C(F)(F)F)cn2)[C@H](C)c2ncccn2)cnc1N [Example 6],> 10 µM
5,CC(C)C(C)N(Cc1ccc(C(F)(F)F)cn1)C(=O)C(=O)Nc1cnc(N)c2c1cnn2C (stereo not shown) [Example 110-P2],< 0.01 µM
6,Cc1cc(NC(=O)C(=O)N(Cc2ccc(N3CCC(F)(F)C3)cn2)[C@H](C)c2ncccn2)cnc1N [Example 29],0.1 to 1 µM
7,CCC(C)N(Cc1cnn(C)c1)C(=O)C(=O)Nc1cnc(N)c(C)c1 (stereo not shown) [Example 73],> 10 µM
8,C[C@H](c1ncccn1)N(Cc1ccc(C(F)(F)F)cn1)C(=O)C(=O)Nc1cnc(N)c2c1cnn2C [Example 30],0.01 to 0.1 µM
9,"Cc1cc(NC(=O)C(=O)N(Cc2ccc(C(F)(F)F)cn2)C2CCCOC2)cnc1N (single isomer, unassigned) [Example 14-P2]",0.1 to 1 µM
10,C[C@H](c1ncccn1)N(Cc1ccc(C(F)(F)F)cn1)C(=O)C(=O)Nc1cnc(N)c(Br)c1 [Example 24],0.1 to 1 µM
11,Cc1cc(NC(=O)C(=O)N(C)Cc2ccc(C(F)(F)F)cn2)cnc1N [Example 3],1 to 10 µM
12,Cc1cc(NC(=O)C(=O)N(Cc2ccc(C(F)(F)F)cn2)C2CCCC2)cnc1N [Example 11],0.1 to 1 µM

# Now from value to compound:
row,GI50,Compound
1,< 0.01 µM,CN(C(=O)C(=O)Nc1cnc(N)c2c1cnn2C)C1COCc2c1ccc(Cl)c2Cl (racemic) [compound 168]
2,0.01 to 0.1 µM,CN(C(=O)C(=O)Nc1cnc(N)c2c1cnn2C)C1COc2cc(-c3cnn(C)c3)ccc21 (stereo not shown) [Example 140-P2]
3,< 0.01 µM,CN(C(=O)C(=O)Nc1cnc(N)c2c1cnn2C)C1COc2cc(-c3cnn(C(F)(F)F)c3)ccc21 (stereo not shown) [Example 213]
4,0.1 to 1 µM,"CN(C(=O)C(=O)Nc1cnc(N)c2c1cnn2C)C1COCc2nc(C(F)(F)F)ccc21 (single isomer, unassigned) [Example 152-P1]"
5,0.01 to 0.1 µM,CN1CC=C(c2ccc3c(c2)COCC3N(C)C(=O)C(=O)Nc2cnc(N)c3c2cnn3C)CC1 (stereo not shown) [Example 160]
6,< 0.01 µM,CN(C(=O)C(=O)Nc1cnc(N)c2c1cnn2C)C1COc2cc(Br)ccc21 (racemic) [compound 180]
7,0.01 to 0.1 µM,CN(C(=O)C(=O)Nc1cnc(N)c2c1cnn2C)C1COCc2c(F)cc(Cl)cc21 (racemic) [compound 155]
8,0.01 to 0.1 µM,CN(C(=O)C(=O)Nc1cnc(N)c2c1cnn2C)C1COCc2cc(C3=CCOCC3)ccc21 (stereo not shown) [Example 132-P2]
9,< 0.01 µM,CN(C(=O)C(=O)Nc1cnc(N)c2c1cnn2C)C1COCc2cc(-c3cnn(C(F)(F)F)c3)ccc21 (racemic) [compound 231]
10,0.01 to 0.1 µM,CN(C(=O)C(=O)Nc1cnc(N)c2c1cnn2C)C1COCc2c1ccc(F)c2F (stereo not shown) [Example 141-P1]
11,< 0.01 µM,CN(C(=O)C(=O)Nc1cnc(N)c2c1cnn2C)C1COCc2cc(-c3ccnn3C)ccc21 (stereo not shown) [Example 137]
